Assay results: patent publication US20060165603A1, “Solubilisation of drugs in hfa propellant by means of emulsions” (Chiesi Farmaceutici S.p.A., priority 2002, published 2006)
Structures can show the parent of a compound that is named as a salt.

How the values were obtained:
[1] = Emulsion formation of pMDI formulations in HFA propellant (visual); format: physicochemical; details: 5% w/w water, 25 μg/50 μl drug; for Comment (emulsion formation): HFA227
Description: (§1) Samples were prepared in clear glass formulation vials. The surfactants were added first followed by water then the other components of the formulation were added and the weight of bottle recorded after each addition. Final compositions were calculated as percentage w/w. Valves were crimped onto plastic-coated bottles or anodized aluminium cans before being placed in a sonicator for 5 minutes to allow as much dissolution of surfactants in the water as possible. The propellant was filled through the valve and the final weight of the packaged formulation recorded. In the case of the emulsions the packaged formulations were either shaken vigorously by hand or gently warmed in the hand (sonication where necessary) to induce an emulsion.
The surfactants used for these formulations are a Span85/AOT blend and the Synperonics L64.

[2] = Microemulsion formation / appearance of formulations in HFA227; format: physicochemical; details: 10% surfactant, 20% EtOH, HFA 227, 5% w/w water
Description: as §1, with “emulsion. For the microemulsion formulations the same method was used except the ethanol was added just before crimping and no sonication was required after HFA addition as a clear formulation was obtained immediately.” for “emulsion.”
The following table 3 lists the various microemulsion formulations prepared with Synperonic L64, AOT, and the fluorinated surfactant Zonyl FSN. L64 and Zonyl FSN produced clear systems.

Molecule	Comment (emulsion formation) ([1]; 0.1% Span85, 0.05% AOT)	Emulsion formation, HFA 134a ([1]; 0.1% Synperonic L64)	Emulsion formation, HFA 227 ([1]; 0.1% Synperonic L64)	Comment (emulsion formation) ([1]; 0.4% Span85, 0.05% AOT)	Emulsion formation, HFA 134a ([1]; 0.5% Synperonic L64)	Emulsion formation, HFA 227 ([1]; 0.5% Synperonic L64)	Emulsion formation, HFA 134a ([1]; 1% Synperonic L64)	Emulsion formation, HFA 227 ([1]; 1% Synperonic L64)	Comment (emulsion formation) ([1]; 0.1% Span85, 0.01% AOT)	Comment (microemulsion formulation appearance) [2]
CN1CCc2cccc3c2[C@H]1Cc1ccc(O)c(O)c1-3 [Apomorphine Hydrochloride, apomorphine hydrochloride]	Emulsion	Emulsion	Emulsion	Emulsion	Emulsion	Emulsion	Emulsion	Emulsion		
CCC(=O)Oc1ccc2c(c1)CC[C@@H]1[C@@H]2CC[C@]2(C)[C@@H](OC(=O)CC)CC[C@@H]12 [Oestradiol Dipropionate, oestradiol dipropionate]	Emulsion	Emulsion			Emulsion	Immediate emulsion	Emulsion	Immediate emulsion	Emulsion	
sodium dioctylsulpho-succinate [AOT]										Slight cloud, one apparent phase
